Consider 18 compounds from PubChem BioAssay AID624129 (Sanford-Burnham Center for Chemical Genomics, 2012).

The source made the active and inactive calls. The rule behind the calls is not given here.

This test deals with C-X-C chemokine receptor type 6 (Homo sapiens) (UniProt O00574). The test can be described thus: CXCR6 receptor antagonists, dose response, cell-based, beta-arrestin, DiscoveRx, APJ panel, uHTS hits (AID 624129). Particulars: CXCR6 beta-arrestin (DiscoveRx) antagonist cell assay; for outcome: CXCR6, dose range 1; for inhibition: CXCR6, run 2, dose range 1, at 79 µM (top of the series).

The mark [1] stands for this setting: CXCR6, dose range 1, mean IC50 across replicates.

Sequence of C-X-C chemokine receptor type 6 (Homo sapiens) (O00574 whole entry, looked up): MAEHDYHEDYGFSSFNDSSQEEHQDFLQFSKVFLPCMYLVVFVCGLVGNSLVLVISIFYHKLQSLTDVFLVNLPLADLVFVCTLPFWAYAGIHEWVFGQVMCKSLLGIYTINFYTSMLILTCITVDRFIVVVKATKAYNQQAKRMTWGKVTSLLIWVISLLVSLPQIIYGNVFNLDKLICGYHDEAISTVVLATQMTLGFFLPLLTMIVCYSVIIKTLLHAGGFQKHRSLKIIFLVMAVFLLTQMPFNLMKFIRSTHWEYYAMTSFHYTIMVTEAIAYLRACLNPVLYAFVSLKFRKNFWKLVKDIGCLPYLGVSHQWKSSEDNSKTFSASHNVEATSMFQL

Take `CCOc1cc(/C=C2\N=C(SCC)SC2=O)cc([N+](=O)[O-])c1OC(C)=O`: the outcome was inactive and the inhibition (in general, the relative decrease from the control value, in per cent) is 95.5%. The IC50 (commonly the concentration that gives 50% inhibition) under setting [1] was determined as 39.3 µM. Where the note is “CXCR6, run 1, dose range 2”, this compound registered an IC50 of 23.8 µM. This compound also returned an IC50 (CXCR6, run 2, dose range 2) of 54.8 µM.

Consider `C=C1C(=O)[C@]23C[C@H]1CCC2[C@@]1(C)C(C[C@@H]3O)[C@](C)(C(=O)OC)CC[C@@H]1O` (stereo not given in full), for which the outcome was inactive and the inhibition worked out at 109%. The IC50 under setting [1] came to 11.5 µM. This compound registered an IC50 (CXCR6, run 1, dose range 2) of 11.6 µM. The compound further showed an IC50 (CXCR6, run 2, dose range 2) of 11.4 µM.

On to `COC(=O)C1=C(C(=O)OC)C2OC1c1cc3ccccc3cc12`, for which the result was inactive and the inhibition came to 112%. Under setting [1], this compound displayed an IC50 of 14.5 µM. For the setting “CXCR6, run 1, dose range 2”, this compound yielded an IC50 of 12.3 µM. The compound further returned a half-inhibitory concentration (IC50) (CXCR6, run 2, dose range 2) of 16.7 µM.

For the compound `Oc1ccc(Cl)c2cccnc12`, the outcome was active and the inhibition is 17.7%. The IC50 under setting [1] amounted to 4.82 µM. Under “CXCR6, run 1, dose range 2”, this compound showed an IC50 of 4.82 µM. For the same compound, for the setting “CXCR6, run 2, dose range 2”, the IC50 was over 79 µM.

Regarding `CC1=C(C)CC2C(C1)C(=O)c1ccc(Br)cc1S2(=O)=O` (stereo not given), the outcome was inactive and the inhibition came to 50.8%. This compound showed an IC50 under setting [1] of 30.5 µM. This compound also had an IC50 (CXCR6, run 1, dose range 2) of 37.3 µM. This compound also gave an IC50 (CXCR6, run 2, dose range 2) of 23.7 µM.

`O=C(Nc1ccccc1Oc1ccccc1)[C@@H]1O[C@H](CO)[C@H](O)[C@H](O)[C@H]1O`: the result was inactive and the inhibition was determined as 99.6%. The compound further gave an IC50 under setting [1] of 14.2 µM. Besides, under “CXCR6, run 1, dose range 2”, the IC50 was determined as 12.4 µM. For the setting “CXCR6, run 2, dose range 2”, this compound showed an IC50 of 15.9 µM.

On to `Cc1ccc(C(=O)NNC(=S)NC(=O)c2ccccc2)cc1`, for which the result was inactive and the inhibition stood at 84.4%. This compound also registered an IC50 under setting [1] of 20.1 µM. Also, the IC50 (CXCR6, run 1, dose range 2) was 18 µM. The IC50 (CXCR6, run 2, dose range 2) amounted to 22.2 µM.

Regarding `Cc1cccc(CS(=O)(=O)c2ncc(Cl)c(C(=O)NCc3ccccc3)n2)c1`, the result was inactive and the inhibition worked out at 112%. In addition, the IC50 under setting [1] was 13.1 µM. The IC50 (CXCR6, run 1, dose range 2) was found to be 11.5 µM. This compound also yielded an IC50 (CXCR6, run 2, dose range 2) of 14.7 µM.

In the case of `Cc1ccc(NC(=O)C2=C(c3ccccc3)S(=O)(=O)CCS2(=O)=O)cc1`, the outcome was inactive and the inhibition turned out to be 108%. The same compound gave an IC50 under setting [1] of 16.9 µM. Besides, for the setting “CXCR6, run 1, dose range 2”, the IC50 was determined as 16.4 µM. Where the note is “CXCR6, run 2, dose range 2”, this compound came in with an IC50 of 17.4 µM.

`CCOc1cc(/C=C2\C(=O)N(c3cccc(C(F)(F)F)c3)C(=O)c3ccccc32)ccc1O`: the outcome was inactive and the inhibition is 81%. For the same compound, the IC50 under setting [1] came out at 49.2 µM. The same compound gave an IC50 (CXCR6, run 1, dose range 2) of 49.2 µM. Besides, the IC50 (CXCR6, run 2, dose range 2) is over 79 µM.

For `NC(=S)NN=C1c2cc(Cl)ccc2-c2c1cc(Cl)cc2[N+](=O)[O-]`, the outcome was inactive and the inhibition was 93.3%. The same compound came in with an IC50 under setting [1] of 14.1 µM. Moreover, under “CXCR6, run 1, dose range 2”, the IC50 was found to be 11.7 µM. Besides, the IC50 (CXCR6, run 2, dose range 2) turned out to be 16.4 µM.

Turning to `COC(=O)c1ccc(CCc2cc(O)c(Br)cc2O)cc1`, the outcome was inactive and the inhibition came out at 111%. The IC50 under setting [1] came to 43.1 µM. Besides, the IC50 (CXCR6, run 1, dose range 2) stood at 19.5 µM. Besides, the IC50 (CXCR6, run 2, dose range 2) turned out to be 66.8 µM.

Consider `O=C1C=CC(=O)N1CCNc1ncc(C(F)(F)F)cc1Cl`, for which the outcome was inactive and the inhibition turned out to be 110%. For the same compound, the IC50 under setting [1] was 15.5 µM. The same compound showed an IC50 (CXCR6, run 1, dose range 2) of 15.7 µM. Where the note is “CXCR6, run 2, dose range 2”, this compound came in with an IC50 of 15.2 µM.

Turning to `COc1cc(/C=C/C(O)=C/C(=O)/C=C/c2ccc(O)cc2)ccc1O`, the outcome was inactive and the inhibition was 98.4%. Also, the IC50 under setting [1] was found to be 39.4 µM. Also, the IC50 (CXCR6, run 1, dose range 2) was 40.1 µM. Under “CXCR6, run 2, dose range 2”, this compound registered an IC50 of 38.7 µM.

Turning to `Cn1cnc([N+](=O)[O-])c1S(=O)(=O)c1ccc(Cl)cc1`, the outcome was inactive and the inhibition was found to be 110%. The IC50 under setting [1] is 13.9 µM. Where the note is “CXCR6, run 1, dose range 2”, this compound displayed an IC50 of 14.5 µM. The IC50 (CXCR6, run 2, dose range 2) was 13.3 µM.

Take `C=CC[n+]1c(-c2ccc(Cl)cc2Cl)csc1Nc1c(C)n(C)n(-c2ccccc2)c1=O`: the result was inactive and the inhibition is 101%. Further, under setting [1], the IC50 worked out at 40 µM. The same compound yielded an IC50 (CXCR6, run 1, dose range 2) of 29.2 µM. Besides, the IC50 (CXCR6, run 2, dose range 2) worked out at 50.8 µM.

Turning to `Cc1ccc(NC(=O)c2nc(S(=O)(=O)Cc3ccccc3C)ncc2Cl)cc1C`, the result was inactive and the inhibition was 104%. The compound also came in with an IC50 under setting [1] of 13.7 µM. For the same compound, the IC50 (CXCR6, run 1, dose range 2) is 13 µM. The compound also displayed an IC50 (CXCR6, run 2, dose range 2) of 14.3 µM.

Regarding `Cn1cnc([N+](=O)[O-])c1S(=O)(=O)c1cccc(Cl)c1`, the outcome was inactive and the inhibition was determined as 112%. Under setting [1], this compound returned an IC50 of 12.1 µM. The compound also registered an IC50 (CXCR6, run 1, dose range 2) of 12.4 µM. Under “CXCR6, run 2, dose range 2”, the IC50 came to 11.9 µM.
